Results published in patent US12435087B2, “Modulators of DCN-1 and methods of use thereof” (Cellarity, Inc., priority 2023, dated 2025).
Like-named read-outs stand apart in the source and are kept apart here.

Tests used:
[1] = molecular target: DCN1 (DCUND1) protein PONY domain (Homo sapiens (Human), UniProt Q96GG9); assay: TR-FRET assay (binding to DCN-1, displacement of FAM-labeled probe)
Method in brief: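 Compounds read at 1, 5 and 24 h, 0.1% final DMSO, by TR-FRET between terbium-streptavidin on biotinylated DCN1 PONY domain (E. coli) and a FAM-tagged non-covalent inhibitor probe. Two setups used, 5 nM protein with 20 nM labelled probe, or 0.31 nM protein with 100 nM labelled plus 800 nM unlabelled probe; buffer had TritonX and 200 mM NaCl. % activity relative to high (with probe) and low (without probe) controls.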

[2] = molecular target: DCN1 protein (Homo sapiens (Human), UniProt Q96GG9); assay: Intact protein MS analysis with the RapidFire-TOF system (covalent adduct formation); format: binding; settings: 400 nM DCN1, incubated at room temperature for 3 hours
Protocol: (§1) DCN1 protein, His-TEV-DCN1, were expressed in E. Coli. The His-tagged protein was first purified with an Ni-NTA column. The His-tag was cleaved using His-tag TEV protease and the His-tags were removed using a second Ni-NTA column. Protein purity was verified with SDS-PAGE and intact MS. DCN1 was dissolved in a buffer containing 25 mM Tris-HCl, 200 mM NaCl, and 1 mM DTT at 400 nM. 11 concentrations of compounds were added to the DCN1 solution and incubated at room temperature for 3 hours, unless otherwise specified. The reaction plates were quenched by adding 0.2% formic acid. Quenched assay plates were analyzed with an Agilent RapidFire 360 system connected to an Agilent 6545 Q-TOF mass spectrometer equipped with an AJS source. 10 μL of sample volume was loaded onto a custom packed cartridge (4 μL, PLRP-S 30 μm/1000 Å pore; Optimize Technologies) with loading buffer (ddH2O with 0.09% (vol/vol) formic acid and 0.01% (vol/vol) trifluoroacetic acid; 1.25 ml/min) for 6 seconds before being eluted directly into the mass spectrometer in elution buffer (80% acetonitrile with 0.09% (vol/vol) formic acid and 0.01% (vol/vol) trifluoroacetic acid; 0.5 ml/min) for 7 seconds. The cartridge was re-equilibrated with loading buffer for 1 second before collection of the next sample. The Q-TOF was operated in TOF-only positive ionization mode set to the following parameters: Gas Temp=350 C, Drying Gas=7 l/min, Nebulizer=50 psi, Sheath Gas Temp=400 C, Sheath Gas Flow=12 l/min, VCap=4000 V, Nozzle Voltage=1000 V, Fragmentor=125 V, Skimmer=65 V and Oct 1 RF Vpp=750V. Raw MS data files were deconvoluted and analyzed using the Agilent MassHunter Bioconfirm software package to identify both parent protein and expected compound adduct mass signatures.
An MS assay was performed to evaluate the ability of the compounds to covalently modify DCN-1.
as §1, with “Vcap=4000” for “VCap=4000”

[3] = 24 hr after treatment with compound, read-out: TR FRET IC50 24 hr
[4] = TR FRET IC50 1 hr (nM), 1 hr after treatment with compound
[5] = read-out: TR FRET IC50 1 hr, 1 hr after treatment with compound

Sequence of DCN1 protein (Q96GG9 whole entry): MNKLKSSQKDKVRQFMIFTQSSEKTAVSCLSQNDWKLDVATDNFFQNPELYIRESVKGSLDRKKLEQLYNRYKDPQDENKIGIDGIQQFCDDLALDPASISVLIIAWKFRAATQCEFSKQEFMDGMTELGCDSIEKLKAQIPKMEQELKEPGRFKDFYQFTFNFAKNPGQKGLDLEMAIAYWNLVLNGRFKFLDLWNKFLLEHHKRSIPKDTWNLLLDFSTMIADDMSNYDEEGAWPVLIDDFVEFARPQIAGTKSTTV
Sequence of DCN1 (DCUND1) protein PONY domain (Q96GG9 60-248): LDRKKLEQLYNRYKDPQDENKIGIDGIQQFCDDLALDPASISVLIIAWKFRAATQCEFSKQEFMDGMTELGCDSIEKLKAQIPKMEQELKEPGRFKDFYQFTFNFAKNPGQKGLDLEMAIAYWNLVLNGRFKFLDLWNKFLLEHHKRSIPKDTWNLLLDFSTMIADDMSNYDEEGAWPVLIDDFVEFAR

Compound	IC50 [1, 3] [nM]	IC50 [1, 4] [nM]	Emax [2] [%]	IC50 [1, 5] [nM]
CCN1C(=O)[C@H](NC(=O)c2cccc(C(F)(F)F)c2)[C@@H](c2cccc(NC(=O)/C(C#N)=C/C(C)C)c2)c2c(C)nn(-c3ccccc3)c21 (racemic) [Compound I-46, rac-N-((4R,5S)-4-(3-((E)-2-cyano-4-methylpent-2-enamido)phenyl)-7-ethyl-3-methyl-6-oxo-1-phenyl-4,5,6,7-tetrahydro-1H-pyrazolo[3,4-b]pyridin-5-yl)-3-(trifluoromethyl)benzamide]	≤ 200	≤ 200	80 to 100	
CCN1C(=O)[C@H](NC(=O)c2cccc(C(F)(F)F)c2)[C@@H](c2cccc(NC(=O)/C=C/CN3CCOCC3)c2)c2c(C)nn(-c3ccccc3)c21 (racemic) [Compound I-47]	1000 to 3000		0 to 30	> 3000
C=C(CN1CCC(F)(F)C1)C(=O)Nc1cccc([C@@H]2c3c(C)nn(-c4ccccc4)c3N(CC)C(=O)[C@H]2NC(=O)c2cccc(C(F)(F)F)c2)c1 (racemic) [Compound I-60]	≤ 200		80 to 100	≤ 200
C=C(CN1CC2(COC2)C1)C(=O)Nc1cccc([C@@H]2c3c(C)nn(-c4ccccc4)c3N(CC)C(=O)[C@H]2NC(=O)c2cccc(C(F)(F)F)c2)c1 (racemic) [Compound I-64]	≤ 200		80 to 100	≤ 200
C=C(CN1CCOCC1)C(=O)Nc1cccc([C@H]2c3c(C)nn(-c4ccccc4)c3N(CC)C(=O)[C@@H]2NC(=O)c2ccn(C(F)(F)F)n2)c1 (racemic) [Compound I-65]	≤ 200		80 to 100	≤ 200
CCN1C(=O)[C@H](NC(=O)c2cccc(C(F)(F)F)c2)[C@@H](c2cccc(NC(=O)/C(C#N)=C/C3CC3)c2)c2c(C)nn(-c3ccccc3)c21 (racemic) [Compound I-68, rac-N-((4R,5S)-4-(3-((E)-2-cyano-3-cyclopropylacrylamido)phenyl)-7-ethyl-3-methyl-6-oxo-1-phenyl-4,5,6,7-tetrahydro-1H-pyrazolo[3,4-b]pyridin-5-yl)-3-(trifluoromethyl)benzamide]	200 to 1000	≤ 200	80 to 100	
CCN1C(=O)[C@H](NC(=O)c2cccc(C(F)(F)F)c2)[C@@H](c2cccc(NC(=O)/C(C#N)=C/C(C)(C)C)c2)c2c(C)nn(-c3ccccc3)c21 (racemic) [Compound I-69, ˜{N}—[˜{rac}-(4˜{S},5˜{R})-7-ethyl-3-methyl-6-oxo-1-phenyl-4-[3-[[˜{rac}-(˜{E})-2-cyano-4,4-dimethyl-pent-2-enoyl]amino]phenyl]-4,5-dihydropyrazolo[3,4-b]pyridin-5-yl]-3-(trifluoromethyl)benzamide]	200 to 1000	200 to 1000	80 to 100	
C=CC(=O)Nc1cccc([C@H]2c3c(C)nn(-c4ccccc4)c3N(CC)C(=O)[C@@H]2NC(=O)c2cccc(C(F)(F)F)c2)c1 (racemic) [Compound I-77]	200 to 1000	1000 to 3000	80 to 100	
CCN1C(=O)[C@H](NC(=O)c2cccc(C(F)(F)F)c2)[C@@H](c2cccc(NC(=O)C3=CCC3)c2)c2c(C)nn(-c3ccccc3)c21 (racemic) [Compound I-78, ˜{N}—[˜{rac}-(4˜{S},5˜{R})-4-[3-(cyclobutene-1-carbonylamino)phenyl]-7-ethyl-3-methyl-6-oxo-1-phenyl-4,5-dihydropyrazolo[3,4-b]pyridin-5-yl]-3-(trifluoromethyl)benzamide]	200 to 1000	1000 to 3000	80 to 100	
CCN1C(=O)[C@H](NC(=O)c2cccc(C(F)(F)F)c2)[C@@H](c2cccc(NC(=O)CC#N)c2)c2c(C)nn(-c3ccccc3)c21 (racemic) [Compound I-103]	1000 to 3000	1000 to 3000	0 to 30	
